The results in this text go back to publication PMC8956665, “Structural and molecular rationale for the diversification of resistance mediated by the Antibiotic_NAT family” (Communications Biology, 2022).

Where two headings read alike, the source gives them in different places.

The test system of experiment [1] is meta-AAC0038. The following applies: ternary complex with CoA; 10 mM apramycin, 20% PEG 3350, 50 mM ADA pH 7; catalytically inactive mutant; active site cleft.
The test system of experiment [2] is meta-AAC0038. The following applies: binary complex; catalytically inactive mutant.
Experiment [3] addresses AAC(3)-IVa.
Experiment [4] concerns the target AAC(3)-IVa. Put plainly: crystal structure.

Chain of meta-AAC0038 (A0A059X981 entry or part of it H168A): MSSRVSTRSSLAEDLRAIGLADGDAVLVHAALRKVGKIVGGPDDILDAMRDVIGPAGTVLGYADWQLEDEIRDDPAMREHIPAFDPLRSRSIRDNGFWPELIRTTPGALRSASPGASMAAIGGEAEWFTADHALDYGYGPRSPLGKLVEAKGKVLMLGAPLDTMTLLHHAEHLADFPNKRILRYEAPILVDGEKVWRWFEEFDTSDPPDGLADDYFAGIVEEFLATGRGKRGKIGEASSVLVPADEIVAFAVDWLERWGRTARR

As for `CN[C@@H]1[C@@H](O[C@H]2O[C@H](CO)[C@@H](N)[C@H](O)[C@H]2O)O[C@H]2C[C@@H](N)[C@@H](O[C@H]3[C@H](O)[C@@H](O)[C@H](N)C[C@@H]3N)O[C@@H]2[C@@H]1O` [APR, apramycin], the “X-ray crystal structure, co-crystallization” value in experiment [1] is reported as “crystal structures of the ternary meta-AAC0038^H168A•apramycin•CoA”. As to `CC(=O)SCCNC(=O)CCNC(=O)[C@H](O)C(C)(C)COP(=O)(O)OP(=O)(O)OC[C@H]1O[C@@H](n2cnc3c(N)ncnc32)[C@H](O)[C@@H]1OP(=O)(O)O` [AcCoA, acetyl-CoA], in experiment [2], the X-ray crystal structure result is “the binary meta-AAC0038^H168A•acetyl-CoA complexes”. The stoichiometry N is a count of units in the complex or per binding partner. For the molecule AAC(3)-IVa (enzyme), the stoichiometry N in experiment [3] and in experiment [4] was 2 in each case.
